Key:
CFA-stimulated rats [1] = assay: CFA inflammatory pain model, mechanical allodynia (von Frey test); type: in vivo; parameters: key to Mechanical Allodynia, change in sensitivity compared to CFA alone / Mechanical Allodynia, significant reduction in pain behavior vs CFA alone: NS = no statistically significant change in sensitivity compared to CFA alone; + = statistically significant change in sensitivity compared to CFA alone, p < 0.05; conditions: for PWT (paw withdrawal threshold) vs CFA+vehicle: data not shown
Method: (§1) Response to peripheral inflammatory stimulus can be modeled by administering complete Freund's adjuvant (CFA), a suspension of desiccated mycobacterium in paraffin oil and mannide monooleate, by subcutaneous injection into the rat's footpad. The introduction of CFA to peripheral tissues leads to a rapid, sustained, inflammatory reaction in the treated tissue within 24 hours. Subcutaneous administration of CFA in the plantar region of the paw induces inflammatory pain behaviors that persist for at least 8 days. CFA treatment also leads to the accumulation of inflammatory cytokines in paw tissue at the site of injury, which, if unresolved, can lead to formation of fibrotic tissue. The extent of inflammatory response to CFA can be assessed by quantification of inflammatory cytokines in paw skin lysate, and inflammatory pain behaviors by mechanical allodynia (von Frey test) and thermal hyperalgesia (Hargreaves test).
(§2) In one study, Compound 2a was tested for its ability to reduce inflammatory pain behaviors in the CFA inflammation model. On study day 0, […] of CFA was administered subcutaneously in the plantar of the right hind paw. Animals were treated daily with Compound 2a in solution via oral gavage (PO) at doses of 1, 0.1, and 0.025 mg/kg. Treatment began before CFA injection on study day −1 and continued through study day 8.
Mechanical allodynia was measured using the von Frey test. In this test, rats were placed on a wire mesh and a series of filaments designed to deliver probing force ranging from 4 to 26 grams were applied to the mid-plantar surface of the right hind paw. Animals indicated pain response by lifting the probed paw. The minimal force required to elicit the withdrawal response was recorded as the paw withdrawal threshold (PWT). Von Frey testing was performed 1 hour after Compound 2a dosing on study day 1, 3, and 7, and was also tested pre-dosing on day 7. Statistical analysis was performed using a 1-way ANOVA with Tukey post-test. A p-value below 0.05 was considered statistically significant. Control animals stimulated with CFA but treated with only vehicle had high sensitivity to mechanical stimulation compared to normal control animals.
(§3) In another study, Compounds 1a, 5a, and 6a were similarly tested against CFA-induced inflammatory stimulation in the right hind foot for their ability to reduce pain behaviors. This study also included quantification of inflammatory cytokine expression in paw skin lysate. Inflammatory pain stimulation with CFA injection and assessment of mechanical and thermal pain behaviors were performed as described above, with the exception that only post-dose pain behavior testing is reported.
(§4) Intraplantar CFA injection occurred at day 0. Treatment with Compounds 1a, 5a, and 6a occurred at days −2, 1, 3, and 7. At day 8, the rats were terminated and cytokine levels were measured in paw skin and plasma. Tissue from paw bone, joint, and muscle were obtained for H&E staining and analysis. Cytokine levels in test compound-treated animals were compared to CFA-stimulated animals. Analytes included interleukin 4 (IL-4), tumor necrosis factor alpha (TNF-α) and interferon gamma (IFN-γ). Statistical analysis consisted of 1-way ANOVA followed by Dunnett's multiple comparisons post-test. Mechanical allodynia and thermal hyperalgesia were tested 1 hour post-dosing on days 1, 3, and 7. PWT refers to […] paw withdrawal threshold where a higher value corresponds to a higher pain threshold. PWL refers to […] paw withdrawal latency where a higher value corresponds to a higher pain threshold.

[2] = system: pulmonary LPS-stimulated rats; assay: Cytokine expression in BALF supernatant (multiplex immunoassay), LPS-induced acute pulmonary inflammation; type: in vivo
CFA-stimulated rats [3] = assay: CFA inflammatory pain model, thermal hyperalgesia (Hargreaves method); type: in vivo; parameters: key to Thermal Hyperalgesia, change in sensitivity compared to CFA alone / Thermal Hyperalgesia, significant reduction in pain behavior vs CFA alone: NS = no statistically significant change in sensitivity compared to CFA alone; + = statistically significant change in sensitivity compared to CFA alone, p < 0.05
Method: as §1, §2
Thermal hyperalgesia was measured using the Hargreaves method. A temperature ramp was applied to the right hind paw and the paw withdrawal latency (PWL) was recorded as a measure of sensitivity to thermal stimulation. […] Statistical analysis was performed using a 1-way ANOVA with Tukey post-test. A p-value below 0.05 was considered statistically significant.
as §3, §4

MRC-5 cells = assay: TGFβ-stimulated αSMA expression in MRC-5 cells (HTRF); type: cell-based; parameters: key to Significant reduction in αSMA via HTRF compared to TGFβ alone: NS = no statistically significant change in aSMA expression; + = p < 0.05; ++ = p < 0.01; +++ = p < 0.005; ++++ = p < 0.001; conditions: for Significant reduction in αSMA via HTRF compared to TGFβ alone: TGFβ 1 ng/ml, HGF 0.01 ng/ml, 48 h
Method: In this study, pulmonary-derived immortalized fibroblasts, MRC-5 cells, were cultured as a model of the early transition to fibrosis, and αSMA expression was measured using an immunodetection system driven by homogenous time-resolved fluorescence (HTRF) technology. This detection system produces a fluorescent signal in the presence of αSMA in cell lysates. Cells were grown to confluence in 96-well culture plates in complete media, and then transitioned to serum-free media for 2 hours. Next TGFβ (final 1 ng/ml in serum-free media) was added to the cells to stimulate the fibrotic transition. After 2 hours, media containing either HGF or HGF combined with one of the compounds was added to the cells. After incubation for 48 hours, cells were lysed and processed for αSMA HTRF to detect the levels of αSMA expression and compared to TGFβ-stimulated cultures. Statistical analysis consisted of 1-way ANOVA with a Dunnett's multiple comparison's post-test.

[4] = 8 mg/kg PO, Day 1, 1 h post-dose
[5] = 8 mg/kg PO, Day 3, 1 h post-dose
[6] = 8 mg/kg PO, Day 7, 1 h post-dose
[7] = 16 mg/kg PO, Day 1, 1 h post-dose
[8] = 16 mg/kg PO, Day 3, 1 h post-dose
[9] = 16 mg/kg PO, Day 7, 1 h post-dose
[10] = PO, post-dose testing, any tested dose
[11] = 0.075 mg/kg IV, 24 h and 0.5 h before LPS
[12] = 0.75 mg/kg IV, 24 h and 0.5 h before LPS

SMILES: CCC(C)CN1CC2N(C(=O)c3ccc(C(F)(F)F)cc3)CCC(=O)N2[C@@H](C)C1=O (stereo partly shown) [Compound 1a]
- Mechanical Allodynia, significant reduction in pain behavior vs CFA alone (CFA-stimulated rats [1]; [4]): + (+ = statistically significant change in sensitivity compared to CFA alone, p < 0.05)
- Mechanical Allodynia, significant reduction in pain behavior vs CFA alone (CFA-stimulated rats [1]; [5]): + (+ = statistically significant change in sensitivity compared to CFA alone, p < 0.05)
- Mechanical Allodynia, significant reduction in pain behavior vs CFA alone (CFA-stimulated rats [1]; [6]): NS
- Mechanical Allodynia, significant reduction in pain behavior vs CFA alone (CFA-stimulated rats [1]; [7]): + (+ = statistically significant change in sensitivity compared to CFA alone, p < 0.05)
- Mechanical Allodynia, significant reduction in pain behavior vs CFA alone (CFA-stimulated rats [1]; [8]): + (+ = statistically significant change in sensitivity compared to CFA alone, p < 0.05)
- Mechanical Allodynia, significant reduction in pain behavior vs CFA alone (CFA-stimulated rats [1]; [9]): + (+ = statistically significant change in sensitivity compared to CFA alone, p < 0.05)
- study days on which sensitivity to mechanical stimulation was reduced (CFA-stimulated rats [1]; [10]): study days 1, 3, and 7
- PWT (paw withdrawal threshold) vs CFA+vehicle (CFA-stimulated rats [1]; day 1): statistically significant increase
- PWT (paw withdrawal threshold) vs CFA+vehicle (CFA-stimulated rats [1]; day 3, 8 and 16 mg/kg): statistically significant increase
- PWT (paw withdrawal threshold) vs CFA+vehicle (CFA-stimulated rats [1]; day 7, 16 mg/kg): statistically significant increase
- CXCL10, significant change in cytokine expression in BALF supernatant [2, 11]: + (+ = Significant change in cytokine quantification, p < 0.05 by Student's T-test)
- IFN-γ, significant change in cytokine expression in BALF supernatant [2, 11]: + (+ = Significant change in cytokine quantification, p < 0.05 by Student's T-test)
- CXCL2, significant change in cytokine expression in BALF supernatant [2, 12]: + (+ = Significant change in cytokine quantification, p < 0.05 by Student's T-test)
- CXCL10, significant change in cytokine expression in BALF supernatant [2, 12]: + (+ = Significant change in cytokine quantification, p < 0.05 by Student's T-test)
- G-CSF, significant change in cytokine expression in BALF supernatant [2, 12]: + (+ = Significant change in cytokine quantification, p < 0.05 by Student's T-test)
- IL-1β, significant change in cytokine expression in BALF supernatant [2, 12]: + (+ = Significant change in cytokine quantification, p < 0.05 by Student's T-test)
- cytokines with significant changes in expression in BALF supernatant versus LPS-only animals ([2]; p<0.05, Student's T-test, any tested dose): G-CSF, CXCL2, CXCL10, IFN-γ, and IL-1β
- Thermal Hyperalgesia, significant reduction in pain behavior vs CFA alone (CFA-stimulated rats [3]; [4]): NS
- Thermal Hyperalgesia, significant reduction in pain behavior vs CFA alone (CFA-stimulated rats [3]; [5]): NS
- Thermal Hyperalgesia, significant reduction in pain behavior vs CFA alone (CFA-stimulated rats [3]; [6]): + (+ = statistically significant change in sensitivity compared to CFA alone, p < 0.05)
- Thermal Hyperalgesia, significant reduction in pain behavior vs CFA alone (CFA-stimulated rats [3]; [7]): + (+ = statistically significant change in sensitivity compared to CFA alone, p < 0.05)
- Thermal Hyperalgesia, significant reduction in pain behavior vs CFA alone (CFA-stimulated rats [3]; [8]): + (+ = statistically significant change in sensitivity compared to CFA alone, p < 0.05)
- Thermal Hyperalgesia, significant reduction in pain behavior vs CFA alone (CFA-stimulated rats [3]; [9]): + (+ = statistically significant change in sensitivity compared to CFA alone, p < 0.05)
- study days on which thermal sensitivity was reduced (CFA-stimulated rats [3]; [10]): study days 1, 3, and 7
- PWL (paw withdrawal latency) vs CFA+vehicle (CFA-stimulated rats [3]; day 7 at each dose, data not shown): statistically significant increase
- αSMA expression (MRC-5 cells; 1 uM, combined with 0.01 ng/ml HGF): significantly reduced αSMA
- Significant reduction in αSMA via HTRF compared to TGFβ alone (MRC-5 cells; test compound 1 nM): NS
- Significant reduction in αSMA via HTRF compared to TGFβ alone (MRC-5 cells; test compound 1 μM): ++++ (++++ = p < 0.001)
